Source: patent US20090181935A1, “COMPOSITIONS COMPRISING AN […] AND A LONG-ACTING BETA-AGONIST” (Chiesi Farmaceutici S.p.A., priority 2008, published 2009)
Structures can show the parent of a compound that is named as a salt. Where two headings read alike, the source gives them in different places. Values belong to the molecule of their own block, whether it stands above or below them.

Columns and labels:
[1] = system: carbachol-induced contraction in guinea-pigs trachea; assay: Carbachol-induced contraction in guinea-pig trachea strips, relaxation, isobolographic analysis; format: cell-based; conditions: Cavia porcellus, read-out: ED50, relaxation of carbachol-induced contraction
Description: Male guinea-pigs (380-420 g) are used. The investigation conforms to the Guide for the Care and Use of Laboratory Animals published by the US National Institutes of Health (NIH Publication No. 85-23, revised 1996).
The trachea is removed, cleaned and cut into two zig-zag strips, according to Emmerson et al. (J. Pharm. Pharmacol., 1979; 31:798). A sub-maximal concentration of carbachol (3×10^−7 M) is then added to the organ bath and when stable contraction is reached, a cumulative concentration-response curve (from 1×10^−11 to 1×10^−7 M) to carmoterol or compound 1′ is generated (n=12 for each compound). Maximal relaxation is tested by adding a maximal dose of isoproterenol (3×10^−7 M) at the end of the curve. Data are expressed as percentages of the isoproterenol-induced maximal relaxation. Isobolographic analysis is used to characterize the pharmacological interaction between carmoterol and compound 1′.
To estimate the experimental ED50MIX, the dose-effect curve resulting from this second set of experiments (Table 1) is fitted with a mixed logistic model. All computations are carried out resorting to NLMIXED procedure (SAS/STAT® User's Guide, version 9, 2004. SAS Institute Inc., Cary, N.C.).

[2] = biological target: T1, M2 muscarinic receptors (Homo sapiens, UniProt P08172); assay: Dissociation / duration of action on M2 receptors; format: binding; conditions: compared with tiotropium bromide
T1 sequence (P08172 1-466): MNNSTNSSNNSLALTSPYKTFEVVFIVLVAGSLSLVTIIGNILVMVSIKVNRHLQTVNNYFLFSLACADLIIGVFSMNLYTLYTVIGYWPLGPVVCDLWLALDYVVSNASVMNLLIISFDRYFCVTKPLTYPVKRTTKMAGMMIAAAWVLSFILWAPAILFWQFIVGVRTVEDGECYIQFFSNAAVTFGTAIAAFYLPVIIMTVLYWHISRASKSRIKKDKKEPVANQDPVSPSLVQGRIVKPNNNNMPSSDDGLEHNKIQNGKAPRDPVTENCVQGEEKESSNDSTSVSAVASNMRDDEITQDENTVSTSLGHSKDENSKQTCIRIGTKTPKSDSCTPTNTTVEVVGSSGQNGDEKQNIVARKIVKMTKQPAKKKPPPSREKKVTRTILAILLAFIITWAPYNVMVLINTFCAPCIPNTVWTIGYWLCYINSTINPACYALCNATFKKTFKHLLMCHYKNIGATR

[3] = system: muscarinic receptors; assay: Receptor potency and duration of action compared with tiotropium bromide
[4] = system: acetylcholine (Ach) challenge, airway reactivity; assay: Bronchodilation activity: Ach-induced increase in Penh, barometric plethysmography after nebulisation; format: in vivo, guinea pigs; conditions: for bronchoprotective effect: twenty-four hours
Description: (§1) Airway reactivity is measured using barometric plethysmography (Buxco, USA). Male guinea pigs (500-600 g) are individually placed in plexiglass chambers. After an acclimatisation period, animals are exposed to nebulised saline for 1 minute to obtain airway baseline reading. This is followed by a 1 minute challenge with nebulised acetylcholine (Ach)-2.5 mg/mL.
(§2) After 60 minutes, 5 minutes nebulisation of vehicle or the compound 1′ in the range 2.5-250 μM are applied and Ach challenge is then repeated after 2, 5, 24, 48, and 72 hours (h). Recording of pressure fluctuations in the chambers are taken for 5 minutes after each nebulisation and analysed to calculate Enhanced Pause (Penh). Airway reactivity is expressed as percentage increase in Penh compared with Penh values from the nebulisation of vehicle.

[5] = as above; format: in vivo, guinea pigs; conditions: male, guinea pig, lung, inhaled; nebulisation with submaximal bronchodilator activity, 2 hours after treatment; read-out: retained dose in the target organ (lung levels)
Description: as §1, §2

- EC50 ([1]; carbachol 3×10^−7 M, % of isoproterenol-induced maximal relaxation, n=12): 540 pM
SMILES: COc1ccc(C[C@@H](C)NC[C@H](O)c2ccc(O)c3[nH]c(=O)ccc23)cc1 [carmoterol, reference compound]

SMILES: O=C(C[N+]12CCC(CC1)C(OC(=O)N(Cc1cc(F)c(F)c(F)c1)c1cccc(F)c1)C2)c1cccs1 (stereo not shown) [chloride salt of active compound 1, 3-[[[(3-fluorophenyl)[(3,4,5-trifluorophenyl)methyl]amino]carbonyl]oxy]-1-[2-oxo-2-(2-thienyl)ethyl]-1-azoniabicyclo[2.2.2]octane]
- duration of action on the M2 receptors [2]: significantly short-acting
- duration of action [3]: equieffective to tiotropium bromide
- receptor potency [3]: equieffective to tiotropium bromide

SMILES: O=C(C[N+]12CCC(CC1)C(OC(=O)N(Cc1cc(F)c(F)c(F)c1)c1cccc(F)c1)C2)c1cccs1 (stereo not shown) [compound 1′, 3-[[[(3-fluorophenyl)[(3,4,5-trifluorophenyl)methyl]amino]carbonyl]oxy]-1-[2-oxo-2-(2-thienyl)ethyl]-1-azoniabicyclo [2.2.2]octane]
- EC50 [1]: 930 pM
- bronchoprotective effect ([4]; 25 μM inhalation): 63.7±15.1%
- inhibition of Ach-induced increase in Penh ([4]; 50 μM inhalation, 48 hours): 49.2±23.2%
- bronchoprotective effect ([4]; 50 μM inhalation): 87.1±8.7%
- maximal effect, inhibition of Ach-induced increase in Penh ([4]; 50 μM nebulised, two hours after end of nebulisation): 99.6±0.4
- inhibition of Ach-induced increase in Penh (effect) ([4]; 250 μM inhalation, 48 hours): 83.0±16.1%
- residual activity, inhibition of Ach-induced increase in Penh ([4]; 250 μM inhalation, 72 hours): 34.8±20.9%
- duration of effect ([4]; inhalation of lower concentrations (below 25 μM)): ≤ 5 h
- concentration at 2 h [5]: ~50 ng/g
